A value given as a limit tells only on which side of the number the result lay.

This passage reports melting point results from a melting point compilation (Tetko et al.; mined from patent text by program, amines drawn as free bases though some values may be those of a salt).

Regarding `COCOc1cc(COc2nn(Cc3ccccc3)cc2CO)ccc1OCc1nc(-c2ccco2)oc1C`, the melting point lay within 98 to 99 °C.

`Cc1nc2n(c(=O)c1CCN1CCC(c3noc4cc(F)ccc34)CC1)CC(O)CC2` (stereo unspecified) had a melting point of 156 °C.

For the compound `Cc1ccc(C2c3c(C)c(N4C(=O)c5cc(Cl)c(Cl)cc5C4=O)c(C)c(C)c3OC2(C)C)cc1` (stereo unspecified), the melting point was 157 to 159 °C.

`COc1cccc(C=C2C(=O)NC(=O)N2C)c1` had a melting point of 195 to 197 °C.

`NS(=O)(=O)c1cc2cc(O)c(O)cc2s1` registered a melting point of 233 to 235 °C.

The compound `COC(=O)c1nc(N=[N+]=[N-])ccc1OCc1ccccc1` registered a melting point of 88 to 89 °C.

For the compound `CCCCN(Cc1ccc(-c2ccccc2-c2nc(=O)o[nH]2)cc1)c1ncncc1C(=O)OCC`, the melting point was 65 to 69 °C.

`COc1ccc(C(=O)O)cc1OC1C=CCC1` (stereo unspecified): the melting point lay in the range of 160 to 163 °C.

Compound `CC(C)(CO)CCCCC(O)CCCCC(C)(C)CO` displayed a melting point of 72 to 74 °C.

`CCOC(C#N)c1ccc2ccccc2c1` (stereo unspecified) had a melting point of 53 to 54 °C.

`COC(=O)C(=NO)c1nc2ccc(C)cc2oc1=O` registered a melting point of 189 to 190 °C.

The compound `C=Cc1cc2c(cc1Cl)C=C(C(=O)O)C(C(F)(F)F)O2` (stereo unspecified) came in with a melting point above 200 °C.

`CC12CC(=O)C3C(CCC4CC(O)CCC43C)C1CCC2C(=O)OCC#N` (stereo unspecified): the melting point lay within 142 to 146 °C.

`COc1cc(C)nc(NC(=O)NS(=O)(=O)c2ccccc2C(=O)Nc2nncs2)n1` displayed a melting point of 172 to 173 °C.

On to `O=C1N(c2ccccc2Br)Cc2cnc(Nc3ccccc3)nc2N1c1ccc(CO)cc1`, for which the melting point was in the range of 129 to 132 °C.

Compound `CC(C)Oc1ccc(N2CCCNCC2)cc1` displayed a melting point of 62 to 64 °C.

Take `COc1ccc(-n2nc(Sc3cccc(C)c3)c(C)c(C#N)c2=O)cc1`: the melting point is 121 to 122 °C.

For the compound `CCOC(=O)c1cn(C2COC2)c2cc(F)c(F)cc2c1=O`, the melting point was in the range of 177 to 178 °C.

As to `COC(=O)C1OC(Oc2nc[nH]c2C(N)=O)C(OC(C)=O)C(OC(C)=O)C1OC(C)=O` (stereo unspecified), the melting point lay in the range of 211 to 212 °C.

As for `COC(=O)c1ccc(N)c(S(C)(=O)=O)c1`, the melting point came to 146 °C.

`O=CC(=Cc1ccccc1F)C(C=O)=Cc1ccccc1F` displayed a melting point of 141 to 142 °C.

In turn, `C#CCNC(=C[N+](=O)[O-])NCCSCc1csc(NC(=N)N)n1` showed a melting point of 82 to 90 °C.

`CCCCCCCCCCCCSCN(O)CSCCCCCCCCCCCC` returned a melting point of 63 to 65 °C.

Regarding `CC(C)OC(=O)NC1=NCC(c2cccc(F)c2)N1C` (stereo unspecified), the melting point was in the range of 103 to 104 °C.

For the compound `COC(=O)C1=C(C)NC(C)=C(C(=O)OC)C1c1ccccc1F`, the melting point was in the range of 206 to 208 °C.

`COc1cc(C(=O)O)cc(Cl)c1Cl` displayed a melting point of 218 to 219 °C.

As to `CCCC(=O)c1cnc2c(OC)cccc2c1Nc1ccccc1C`, the melting point lay in the range of 215 to 217 °C.

Compound `O=C(Cn1nc(-c2cc(Cl)ccc2O)nc1-c1cc(Cl)ccc1O)NCCN1CCOCC1` came in with a melting point of 224 to 226 °C.

The compound `CSCc1cc2ccccc2n(-c2ccccc2)c1=O` returned a melting point of 138 to 140 °C.

`COc1ccc(N2C(=O)C3=C(SCCS3)C2CC(=O)N2CCCCC2)cc1` (stereo unspecified) showed a melting point of 163 to 164 °C.

As to `N#CC=Cc1cccc(Cl)c1F`, the melting point is 90 to 92 °C.

For `CCCCNC(=O)NS(=O)(=O)c1ccc(CCNC(=O)N2Cc3ccc(C)cc3C2=O)cc1`, the melting point lay within 169 to 171 °C.

In the case of `CCC1(CC(=O)O)OCC(=O)c2c1[nH]c1cccc(Cl)c21` (stereo unspecified), the melting point was in the range of 240 to 243 °C.

As for `CC1C(=O)N(CC(N)=O)c2cc(Br)ccc21` (stereo unspecified), the melting point fell in the range of 102 to 104 °C.

`COc1cc(-c2cc(=O)c3ccc(OCCBr)cc3o2)cc(OC)c1OC`: the melting point is 184 to 185 °C.

Turning to `Cc1nn(Cc2cccc(Cl)c2)cc1C(=O)CC(=O)C(=O)O`, the melting point was 183 to 184 °C.

Regarding `CC1CN(c2cc3ccccc3c(=O)[nH]2)CCN1` (stereo unspecified), the melting point fell in the range of 164 to 167 °C.

As to `CC(C(=O)O)c1ccc2c(c1)Cc1cccnc1O2` (stereo unspecified), the melting point fell in the range of 183 to 184 °C.

In turn, `Cc1cc(C(C)(C)C)cc(C)c1C(=O)O` showed a melting point of 160 to 164 °C.

Regarding `Cc1nc2cc(NC(=O)Nc3ccc(C(F)(F)F)cc3)ccc2o1`, the melting point lay in the range of 240 to 243 °C.

The compound `COc1cnn(-c2cc(F)c(C#N)cc2F)c(=O)c1Cl` yielded a melting point of 182 °C.

Compound `Cc1nc(=O)[nH]c2cc(N(C)C)ccc12` had a melting point above 300 °C.

Consider `CCC(=O)NCCC1=CCc2cc(Br)c(OC)cc21`, for which the melting point lay in the range of 106 to 109 °C.

The compound `CC1=C(CCC(C)CCC(=O)O)C(=O)c2ccccc2C1=O` (stereo unspecified) yielded a melting point of 58 to 61 °C.

As for `CC(Cc1ccc(Oc2cc(N3CCN(Cc4ccccc4)CC3)nc(NCc3ccccc3)n2)cc1)(Oc1ccccc1)C(=O)O` (stereo unspecified), the melting point lay in the range of 104 to 106 °C.

Consider `CCOC(=O)c1cc(-c2ccccn2)[nH]n1`, for which the melting point was 103 to 105 °C.

As for `COc1cc([N+](=O)[O-])c(C=O)cc1OCc1ccccc1`, the melting point lay in the range of 131 to 132 °C.

The compound `CCCCCCCCCC#Cc1ccnc(C(=O)O)c1` returned a melting point of 93 to 94 °C.

Compound `Cn1cc(-c2cccc(C(F)(F)F)c2)c(=O)c(-c2cccc(C(F)(F)F)c2)c1` had a melting point of 152 to 154 °C.

For `CCN1c2ncccc2C(C#N)=Nc2c(C)cc(C)nc21`, the melting point lay within 154 to 155 °C.

In the case of `CC(=O)OC1C(NC(=O)Cc2cccc3c2Cc2ccccc2-3)C(CO)OC1n1cnc2c(Cl)ncnc21` (stereo unspecified), the melting point lay within 196 to 197 °C.

`COC(=O)Nc1cc(C(C)(C)C)no1` came in with a melting point of 86.5 to 87 °C.

Regarding `CCOC(=O)c1nc(-c2cccc(F)c2)c(-c2ccc(=O)n(C(C)C)n2)s1`, the melting point lay in the range of 154 to 155 °C.

With `CCn1cnc2c(Nc3cccc(Cl)c3)nc(N3CCCC(N)C3)nc21` (stereo unspecified), the melting point turned out to be 165 °C.

`CC(=O)C1c2cccc(O)c2C(=O)c2c(O)cccc21`: the melting point came out at 146 °C.

For the compound `O=C(CN1CCN(C(=O)OCc2ccccc2)CC1)Nc1ccccn1`, the melting point was in the range of 78 to 80 °C.

In turn, `COc1ccc2nc(SC(C#N)c3ncc(C)c(OC)c3C)[nH]c2c1` (stereo unspecified) registered a melting point of 193 to 197 °C.

`O=C(Nc1ccc(Cl)cc1[N+](=O)[O-])NC1CCCCC1` yielded a melting point of 115 to 116 °C.

Consider `COC(=O)Cc1ccc2nc(Nc3ccccc3)oc2c1`, for which the melting point is 155 to 157 °C.

Turning to `Cc1cc(Oc2c(Cl)cc(C(F)(F)F)cc2Cl)nn1C(=O)OC(C)(C)C`, the melting point lay in the range of 159 to 161 °C.

In turn, `N#Cc1ccc(S(F)(F)(F)(F)F)cc1[N+](=O)[O-]` registered a melting point of 57 to 59 °C.

In turn, `CCCC1(S(=O)(=O)CCCN2CCN(C)CC2)C(=O)N(S(=O)(=O)c2ccc3ccccc3c2)C2CCNC21` (stereo unspecified) had a melting point of 186 to 187 °C.

Take `CNC(=O)c1ccc(N2CCN(Cc3cc(C)c4c(c3)NC(=O)C(C)O4)CC2)c(Cl)c1` (stereo unspecified): the melting point is 232 °C.

In the case of `CC(C)CCNC(=O)c1ccccc1-c1ccccc1CNS(=O)(=O)c1ccccc1`, the melting point turned out to be 127 °C.

As to `C[C@@H]1C(=O)N(c2ccc(C#N)c(C(F)(F)F)c2)[C@@H](C)[C@H]1O`, the melting point was in the range of 82 to 85 °C.

In turn, `CCNc1cn(-c2cccnc2)nc1Cl` came in with a melting point of 89 to 90 °C.

The compound `CCCOc1ccccc1-c1nc2nc(NC(C)=O)ncc2c(=O)[nH]1` registered a melting point of 273 to 274 °C.

`C=CC1(F)CN(C2CCCC2)c2nc(Nc3ccc(C(=O)NN4CCN(C)CC4)cc3OC)ncc2N(C)C1=O` (stereo unspecified) had a melting point of 253 to 263 °C.

On to `COc1cc(/C=C2/C(C)=C(CC(=O)O)c3cc(F)ccc32)cc(OC)c1OC`, for which the melting point was in the range of 149 to 152 °C.

Take `ClCc1nc2cc(Br)ccc2s1`: the melting point is 107 °C.

For the compound `CC(=O)Oc1cc(C(C)=O)cc(C#N)c1OC(C)=O`, the melting point lay in the range of 76 to 79 °C.

The compound `C#Cc1ccc(-c2c(C)n[nH]c(=O)c2-c2c(F)cc(F)cc2F)cc1` gave a melting point of 252 to 254 °C.

`CN(C)C(=O)C(C)(C)Sc1nc2ccccc2cc1-c1ccccc1` returned a melting point of 149 to 156 °C.

`O=C(Cc1ccc([N+](=O)[O-])cc1C(=O)O)Nc1cccc(/C=C/c2nc(C3CCC3)cs2)c1` registered a melting point of 233 to 235 °C.

`Cn1nc(-c2c(NCc3ccccc3)nc(N)nc2-c2ccccc2)ccc1=O` displayed a melting point above 250 °C.

The compound `CC1(C)Cc2ccccc2C1c1cncnc1S` (stereo unspecified) yielded a melting point of 184 to 186 °C.

The compound `O=C1COC2(CCN(CCc3c[nH]c4ccccc34)CC2)CN1` yielded a melting point of 48 to 50 °C.

`COc1ccc(-c2cc(-c3ccc(-c4c(Cc5ccccc5)oc5ccccc45)cc3)ccc2OC(Cc2ccccc2)C(=O)O)cc1` (stereo unspecified) returned a melting point of 73 to 75 °C.

For `O=C(O)C=C=Cc1ccc(C2CCCCC2)cc1`, the melting point lay within 126 to 129 °C.

Compound `CCOP(=O)(CNC(CCCc1ccccc1)c1cc(C(C)(C)C)c(O)c(C(C)(C)C)c1)OCC` (stereo unspecified) showed a melting point of 93 to 94 °C.

As to `CC1OC(n2cnc(C(N)=O)c2CC#N)C(O)C1O` (stereo unspecified), the melting point lay within 173 to 174 °C.

Turning to `Cc1nc(C=O)cn1Cc1ccccc1`, the melting point lay within 57 to 60 °C.

Compound `CCCC(=O)Nc1cc(Oc2ccccc2)ccc1NC(=NC(=O)OCC)SC` showed a melting point of 118 °C.

Compound `CCOc1cc(C2=NNC(=O)[C@H]3CC=CC[C@@H]23)ccc1OC` (relative stereo) gave a melting point of 163 to 166 °C.

For the compound `CCCCCCCCCC(=O)N[C@@H](C)C(=O)N[C@@H](Cc1ccccc1)C(=O)OC`, the melting point lay in the range of 120 to 122 °C.

`CCOC(=O)c1cn(CC)c2nc(Cl)c(F)cc2c1=O` registered a melting point of 150 to 160 °C.

`Cc1nc(NC(=O)NS(=O)(=O)c2ccccc2C(=O)O)nc2c1CCC2` gave a melting point of 183 to 184 °C.

Turning to `COc1cc(C(C)=O)ccc1OCCCCN1CCC(c2noc3ccccc23)CC1`, the melting point fell in the range of 99 to 101 °C.

`N=C(Nc1ccc2[nH]cc(C3CCN(C(=O)c4ccccc4)CC3)c2c1)c1cccs1`: the melting point lay within 180 to 183 °C.

As to `CCNc1cc(OC)c(C(F)(F)F)cc1[N+](=O)[O-]`, the melting point lay in the range of 140 to 142 °C.

`CS(=O)(=O)ON=C(C#N)C=Cc1ccccc1` had a melting point of 127 to 129 °C.

What is called melting point is the temperature of the solid-liquid transition.
